The structures appear in SMILES notation.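 A five-concentration, 48-hour dose response in 96-well plates underlies each endpoint, interpolated linearly between surrounding concentrations. TGI denotes the concentration required for complete inhibition of growth.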

Test systems include HOP-92 NSCLC; IGROV1 ovarian; HS 578T breast; SNB-75 CNS; MCF7 breast; MALME-3M melanoma; 786-0 renal; OVCAR-8 ovarian; UACC-257 melanoma; SNB-19 CNS; A498 renal; OVCAR-5 ovarian; SK-MEL-28 melanoma; HCT-15 colon; RXF 393 renal; A549 NSCLC; SF-268 CNS; COLO 205 colon; SN12C renal; MDA-MB-231 breast.
Holding throughout (assay): inhibition of tumour cell growth, NCI panel, 48 h

On to `COC(=O)c1nc(-c2nc(CCNC(=O)OC(C)(C)C)sc2Cl)sc1Cl`, for which the TGI with HOP-92 NSCLC was 67.2 µM; in the experiment with IGROV1 ovarian, greater than 100 µM; in the experiment with HS 578T breast it was greater than 100 µM; with SNB-75 CNS, greater than 100 µM; in the experiment with MCF7 breast it was greater than 100 µM; with MALME-3M melanoma, greater than 100 µM. The TGI in the experiment on 786-0 renal, in the experiment with OVCAR-8 ovarian, in the experiment on UACC-257 melanoma, in the experiment on SNB-19 CNS, with A498 renal and in the experiment with OVCAR-5 ovarian was greater than 100 µM throughout. Moreover, the TGI in the experiment on SK-MEL-28 melanoma, with HCT-15 colon, with RXF 393 renal, in the experiment on A549 NSCLC, with SF-268 CNS and in the experiment on COLO 205 colon was greater than 100 µM each time.
For `CC1(C)CC(=O)c2c(nc(SSc3nc4c(c(-c5ccc(Br)cc5)c3C#N)C(=O)CC(C)(C)C4)c(C#N)c2-c2ccc(Br)cc2)C1`, the TGI in the experiment with HOP-92 NSCLC, in the experiment with SN12C renal, with IGROV1 ovarian, with HS 578T breast, in the experiment with SNB-75 CNS and in the experiment on MCF7 breast was greater than 10 µM in each case. The TGI with MALME-3M melanoma, with 786-0 renal, in the experiment on OVCAR-8 ovarian, in the experiment on UACC-257 melanoma, in the experiment on SNB-19 CNS and in the experiment with A498 renal was greater than 10 µM throughout. The TGI with OVCAR-5 ovarian, in the experiment on SK-MEL-28 melanoma, in the experiment on HCT-15 colon, in the experiment on RXF 393 renal, in the experiment with A549 NSCLC and in the experiment on SF-268 CNS was greater than 10 µM in each case. In the experiment with COLO 205 colon, this compound returned a TGI greater than 10 µM.
`CC1(C)N=C(C(=O)c2ccccc2)N(O)C1(O)c1ccccc1` (configuration not stated): the TGI with HOP-92 NSCLC, with SN12C renal, in the experiment on IGROV1 ovarian, in the experiment with HS 578T breast, with SNB-75 CNS and in the experiment with MCF7 breast was greater than 100 µM in each case. In addition, the TGI in the experiment with MALME-3M melanoma, with 786-0 renal, in the experiment on OVCAR-8 ovarian, in the experiment on UACC-257 melanoma, in the experiment with MDA-MB-231 breast and in the experiment with SNB-19 CNS was greater than 100 µM throughout. Further, the TGI in the experiment with OVCAR-5 ovarian, with SK-MEL-28 melanoma, in the experiment on HCT-15 colon, with RXF 393 renal, in the experiment on A549 NSCLC and in the experiment on SF-268 CNS was greater than 100 µM throughout. Besides, the TGI with COLO 205 colon was greater than 100 µM.
As to `CC(C)c1cccc(C(=O)NCCN(C)C)c1[N+](=O)[O-]`, the TGI in the experiment with SN12C renal, in the experiment on IGROV1 ovarian, in the experiment with HS 578T breast, in the experiment with SNB-75 CNS, with MCF7 breast and in the experiment on MALME-3M melanoma was greater than 100 µM each time. The TGI in the experiment with 786-0 renal, in the experiment with OVCAR-8 ovarian, in the experiment with UACC-257 melanoma, with MDA-MB-231 breast, with SNB-19 CNS and in the experiment with A498 renal was greater than 100 µM in each case. The TGI in the experiment on OVCAR-5 ovarian, in the experiment with SK-MEL-28 melanoma, in the experiment on HCT-15 colon, in the experiment with A549 NSCLC, with SF-268 CNS and in the experiment on COLO 205 colon was greater than 100 µM in each case.
Consider `CCOP(=O)(OCC)[C@]12C[C@@H](C)C=C[C@H]1COC2=O`, for which the TGI in the experiment with SN12C renal, in the experiment on HS 578T breast, in the experiment on SNB-75 CNS, in the experiment with MCF7 breast, in the experiment on MALME-3M melanoma and in the experiment with 786-0 renal was greater than 100 µM each time. For the same compound, the TGI in the experiment on OVCAR-8 ovarian, in the experiment on UACC-257 melanoma, with MDA-MB-231 breast, in the experiment on SNB-19 CNS, in the experiment on A498 renal and in the experiment with OVCAR-5 ovarian was greater than 100 µM in each case. The TGI in the experiment on SK-MEL-28 melanoma, with RXF 393 renal, in the experiment with A549 NSCLC, with SF-268 CNS and with COLO 205 colon was greater than 100 µM in each case.
With `O=C(NCCNCCNC(=O)C(F)(F)F)C(F)(F)F`, the TGI in the experiment on SN12C renal, in the experiment with IGROV1 ovarian, with HS 578T breast, in the experiment with MCF7 breast, with MALME-3M melanoma and with 786-0 renal was greater than 100 µM throughout. Further, the TGI in the experiment on OVCAR-8 ovarian, in the experiment with UACC-257 melanoma, in the experiment on MDA-MB-231 breast, in the experiment with SNB-19 CNS, with OVCAR-5 ovarian and in the experiment with SK-MEL-28 melanoma was greater than 100 µM in each case. The TGI in the experiment with HCT-15 colon, in the experiment on RXF 393 renal, in the experiment with A549 NSCLC, in the experiment on SF-268 CNS and in the experiment on COLO 205 colon was greater than 100 µM throughout.
As for `CC(=O)OC1CC[C@@]2(C)C(C1)CC(OC(C)=O)[C@@H]1C2CC(OC(C)=O)[C@]2(C)C(C(C)CC=C(c3ccc(Cl)cc3)c3ccc(Cl)cc3)CCC12` (some centres not stated), the TGI in the experiment with SN12C renal, with IGROV1 ovarian, in the experiment on HS 578T breast, with SNB-75 CNS, with MCF7 breast and with 786-0 renal was greater than 100 µM in each case. In addition, the TGI in the experiment with OVCAR-8 ovarian, in the experiment with UACC-257 melanoma, in the experiment on MDA-MB-231 breast, in the experiment with SNB-19 CNS, in the experiment on OVCAR-5 ovarian and with SK-MEL-28 melanoma was greater than 100 µM each time. The TGI with HCT-15 colon, with A549 NSCLC, with SF-268 CNS and in the experiment on COLO 205 colon was greater than 100 µM each time.
As for `CC1(C)CCC[C@]2(C)[C@@H]1CC[C@@]13O[C@@H]1C1=C(CO)C(=O)OC1=C[C@@H]23`, the TGI in the experiment with HOP-92 NSCLC was 37 µM; in the experiment with SN12C renal, 25.9 µM; with IGROV1 ovarian, 29.4 µM; with SNB-75 CNS it was 88.4 µM; in the experiment on MCF7 breast it was greater than 100 µM; in the experiment on MALME-3M melanoma it was 23.7 µM. Moreover, the TGI with 786-0 renal was 27.3 µM; in the experiment on UACC-257 melanoma, 71.2 µM; with MDA-MB-231 breast it was 81.9 µM; in the experiment on SNB-19 CNS it was 28.7 µM; in the experiment on A498 renal, 76.8 µM; in the experiment with OVCAR-5 ovarian it was 23.2 µM. For the same compound, the TGI in the experiment on SK-MEL-28 melanoma came to 31.7 µM; in the experiment with HCT-15 colon it was 63.7 µM; in the experiment on RXF 393 renal, 36.4 µM; with A549 NSCLC, 24.4 µM; with SF-268 CNS, 54.7 µM; in the experiment with COLO 205 colon it was 30.6 µM.
